Key:
[1] = molecular target: T1, human 5-HT4 receptor (Homo sapiens, UniProt Q13639); test: Isolated electrically stimulated (1 Hz) left atrial preparations from 5-HT4-TG mice, organ bath contractility; parameters: species or system human (expressed in cardiomyocytes of transgenic mice)
T1 construct: expressed in transfected cells; host or cells: cardiomyocytes of transgenic mice (alpha-myosin heavy chain promoter); isolated left and right atria and Langendorff-perfused hearts
From the text: (§1) A mouse with cardiomyocyte-specific expression of the human 5-HT4(a) receptor has been generated in our laboratory (Gergs et al. [2010]). The cardiac myocyte-specific expression was achieved by the use of the α-myosin heavy chain promoter. The age of the animals studied in the atrial contraction experiments was around 4 months. Both genders were studied. All mice were housed under conditions of optimum light, temperature, and humidity with food and water provided ad libitum. The investigation conformed to the Guide for the Care and Use of Laboratory Animals as published by the National Research Council (2011). The animals were handled and maintained according to the approved protocols of the Animal Welfare Committee of the University of Halle-Wittenberg, Halle, Germany.
(§2) In brief, the right or left atrial preparations from the mice were isolated and mounted in organ baths as previously described (Gergs et al. [2013]; Neumann et al. [2003]). […] The solution was continuously gassed with 95% O2 and 5% CO2 and maintained at 37 °C and pH 7.4 (Kirchhefer et al. [2004]; Neumann et al. [1998], [2003]). Spontaneously beating right atrial preparations from mice were used to study any chronotropic effects.
(§3) The drug application was as follows.

[2] = molecular target: T1, human 5-HT4 receptor; test: Spontaneously beating right atrial preparations from 5-HT4-TG mice, beating rate; parameters: species or system human (expressed in cardiomyocytes of transgenic mice); details: right atrium of 5-HT4-TG; for Beating rate: 5-HT 1 µM; for Beating rate / Beating rate in % of 1 µM 5-HT: bufotenin 3 µM, tryptamine 100 µM
From the text: as §1, §2, §3

[3] = test system: atrial preparations from WT mice; test: Isolated left and right atrial preparations from wild-type (WT) littermates; parameters: species or system mouse; details: for effect on beating rate in WT right atrium: spontaneously beating right atrium
Protocol: as §2, §3

[4] = molecular target: T1, human 5-HT4 receptor; test: Langendorff perfused hearts from 5-HT4-TG mice; parameters: species or system human (expressed in cardiomyocytes of transgenic mice); details: 1 µM, n = 5, p < 0.05
Protocol: (§4) We followed previously reported methods for the treatment of the animals. This included the removal of the heart and lungs from the thoracic cavity, placing the dissected heart onto a cannula, the use of custom-made equipment, the buffer composition, quantification of the force from the left ventricular apex, digitization of the recordings, and freeze clamping the hearts (Boknik et al. [2019]; Gergs et al. [2019b]).
(§5) Isolated hearts were prepared according to Langendorff (1895).

[5] = test system: Langendorff hearts from WT mice; test: Langendorff perfused hearts from WT mice; parameters: species or system mouse; details: data not shown, n = 3
Protocol: as §4, §5

[6] = molecular target: T2, human cardiac 5-HT4 receptors (Homo sapiens, UniProt Q13639); test: Isolated electrically stimulated (1 Hz) human right atrial preparations, contractility
T2 construct: from tissue; host or cells: human right atrial preparations (musculi pectinati) from male bypass-surgery patients
T2 sequence (Q13639 whole entry): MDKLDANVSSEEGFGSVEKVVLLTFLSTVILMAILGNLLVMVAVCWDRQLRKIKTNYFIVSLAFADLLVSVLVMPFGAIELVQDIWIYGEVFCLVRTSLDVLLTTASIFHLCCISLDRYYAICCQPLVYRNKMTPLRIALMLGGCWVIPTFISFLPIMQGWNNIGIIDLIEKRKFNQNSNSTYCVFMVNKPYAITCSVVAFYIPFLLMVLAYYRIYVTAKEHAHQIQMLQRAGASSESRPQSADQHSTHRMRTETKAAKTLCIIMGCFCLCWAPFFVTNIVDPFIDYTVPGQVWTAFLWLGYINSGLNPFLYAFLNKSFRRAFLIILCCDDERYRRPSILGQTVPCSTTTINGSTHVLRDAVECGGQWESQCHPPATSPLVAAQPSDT
From the text: The contractile studies on human right atrial preparations were done using the same setup and buffer as used in the mouse studies (see “Contractile studies in mice” section). The samples were obtained from male patients that underwent a bypass surgery (Table 1). Drug therapy included β-receptor blockers, calcium channel blockers, angiotensin-converting enzyme inhibitors/angiotensin receptor blockers, diuretics, direct oral anti-coagulants, metformin, statins, and acetyl salicylic acid. Our methods used for atrial contraction studies in human samples have been previously published and were not altered in this study (Boknik et al. [2019]; Gergs et al. [2009], [2017b], [2018]). This study complies with the Declaration of Helsinki and has been approved by the local ethics committee (hm-bü 04.08.2005) and all patients gave informed consent.

[7] = test system: phosphorylation state of phospholamban (serine 16); test: Western blot of serine 16 phosphorylation of phospholamban in human right atrial preparations; details: electrically stimulated human right atrial preparations
From the text: This is seen in the original tracings (Fig. 7A). […] Calsequestrin was monitored as a loading control in these gels. […] The mouse samples are shown for comparison.

[8] = molecular target: porcine 5-HT4 receptors; parameters: method as in Medhurst and Kaumann [1993]; details: isolated right atrial preparations of pigs; ref Medhurst and Kaumann [1993]; cited from earlier work
[9] = parameters: method as in Ott [2001]; details: humans, ref Ott [2001], cited from earlier work
[10] = test system: phosphorylation state of phospholamban (serine 16); test: Western blot of serine 16 phosphorylation of phospholamban in cardiac preparations of WT mice; details: 1 µM; Langendorff hearts from WT
[11] = test system: phosphorylation state of phospholamban (serine 16); test: Western blot of serine 16 phosphorylation of phospholamban in cardiac preparations of 5-HT4-TG mice; details: 1 µM
[12] = test system: MAO A; parameters: method as in Fisar et al. [2010]; details: in vitro, irreversible; ref Fisar et al. [2010]; read-out: IC50 (half inhibitory concentration) MAO A; cited from earlier work
[13] = test system: MAO B; parameters: method as in Fisar et al. [2010]; details: in vitro, irreversible; ref Fisar et al. [2010]; read-out: IC50 (half inhibitory concentration) MAO B; cited from earlier work
[14] = left atrium of 5-HT4-TG, 5-HT 1 µM, bufotenin 3 µM, tryptamine 100 µM
[15] = left atrium of 5-HT4-TG, bufotenin 3 µM, tryptamine 100 µM
[16] = pD2 (negative decadic logarithm of EC50), force of contraction, left atrium of 5-HT4-TG
[17] = pD2, dF/dtmax, left atrium of 5-HT4-TG
[18] = pD2, dF/dtmin, left atrium of 5-HT4-TG
[19] = pD2, time of relaxation (TR), left atrium of 5-HT4-TG
[20] = pD2, time to peak (TTP), left atrium of 5-HT4-TG

T1 sequence (Q13639 1-387 isoform Q13639-2): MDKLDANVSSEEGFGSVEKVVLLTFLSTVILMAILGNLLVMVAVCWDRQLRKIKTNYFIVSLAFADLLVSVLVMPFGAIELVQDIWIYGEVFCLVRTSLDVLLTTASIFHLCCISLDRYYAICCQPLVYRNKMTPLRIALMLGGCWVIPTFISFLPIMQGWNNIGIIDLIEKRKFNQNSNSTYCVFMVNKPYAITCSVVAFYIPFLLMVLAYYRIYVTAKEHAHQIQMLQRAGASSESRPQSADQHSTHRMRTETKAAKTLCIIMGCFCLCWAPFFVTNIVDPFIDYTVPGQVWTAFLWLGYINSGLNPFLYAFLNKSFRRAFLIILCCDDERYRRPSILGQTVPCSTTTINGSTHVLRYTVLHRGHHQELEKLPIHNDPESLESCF

CN(C)CCc1c[nH]c2ccc(O)cc12 [Bufotenin, 5-hydroxy-N,N-dimethyl-tryptamine]
change of the effects in left and right atrium by 50 µM pargyline ([1]; left and right atrium of 5-HT4-TG, 50 µM pargyline): shifted to the left | Force [1, 14]: 6.45 ± 0.75 mN | TTP [1, 14]: 12.84 ± 0.15 ms | dF/dtmax [1, 14]: 440.7 ± 61.25 mN/s | Force in % of 1 µM 5-HT [1, 15]: 91% ± 5% | TR in % of 1 µM 5-HT [1, 15]: 103% ± 2% | TTP in % of 1 µM 5-HT [1, 15]: 98% ± 0% | dF/dtmax in % of 1 µM 5-HT [1, 15]: 87% ± 6% | dF/dtmin in % of 1 µM 5-HT [1, 15]: 88% ± 6% | EC50 [1, 16]: 0.17 µM | EC50 [1, 17]: 0.126 µM | EC50 [1, 18]: 0.12 µM | EC50 [1, 19]: 0.49 µM | EC50 [1, 20]: 0.355 µM | EC50 ([2]; pD2, beating rate): 0.0912 µM | Beating rate [2]: 396 ± 35 bpm | Beating rate in % of 1 µM 5-HT [2]: 107% ± 7% | positive inotropic effect in WT left atrial preparations ([3]; electrically stimulated (1 Hz) left atrium): no effects | effect on beating rate in WT right atrium [3]: not WT | force of contraction after drug ([4]; increased from 9.74 ± 1.51 mN): 15.6 ± 1.42 mN | rate of relaxation after drug ([4]; increased from 227 ± 43 mN/s): 515 ± 43 mN/s | rate of force development after drug ([4]; increased from 315 ± 57 mN/s): 653 ± 86 mN/s | effect in Langendorff hearts from WT mice [5]: inactive | inotropic effect in isolated paced human atrial trabeculae ([6]; 0.1–10 µM, 1 Hz): concentration- and time-dependent positive inotropic effects | phosphorylation state of phospholamban [7]: increased | pD2, beating rate [8]: 5.95 | parenteral dose needed to bring about hallucinogenic effects ([9]; parenteral): 10 mg | per-oral dose needed to bring about hallucinogenic effects ([9]; per-oral): 100 mg | phosphorylation state of phospholamban on serine 16 in isolated hearts [10]: not WT | phosphorylation state of phospholamban on serine 16 in isolated hearts ([11]; Langendorff hearts from 5-HT4-TG): increased | phosphorylation state of phospholamban on serine 16 in atria ([11]; atria of 5-HT4-TG): increased

CN1[C@@H]2CC[C@H]1C[C@@H](OC(=O)c1c[nH]c3ccccc13)C2 [Tropisetron, tropisetron]
antagonism of the positive inotropic effect of bufotenin ([6]; tropisetron 10 µM additionally applied): revoked the positive inotropic effect of bufotenin

NCCc1c[nH]c2ccccc12 [Tryptamine, tryptamine]
agonist efficacy on 5-HT4 receptors compared to 5-HT ([1]; 5-HT4-TG atrial preparations): partial agonist | efficacy to increase force of contraction and beating rate compared with isoproterenol ([1]; 5-HT4-TG, 1 µM isoproterenol given after): less effective than isoproterenol | Force [1, 14]: 5.74 ± 0.84 mN | TR [1, 14]: 27.61 ± 1.25 ms | TTP [1, 14]: 13.28 ± 0.07 ms | dF/dtmax [1, 14]: 393.56 ± 52.26 mN/s | Force in % of 1 µM 5-HT [1, 15]: 81% ± 7% | TR in % of 1 µM 5-HT [1, 15]: 97% ± 2% | TTP in % of 1 µM 5-HT [1, 15]: 94% ± 1% | dF/dtmax in % of 1 µM 5-HT [1, 15]: 78% ± 5% | dF/dtmin in % of 1 µM 5-HT [1, 15]: 82% ± 4% | EC50 [1, 16]: 26.9 µM | EC50 [1, 17]: 18.6 µM | EC50 [1, 18]: 18.6 µM | EC50 [1, 19]: 2.88 µM | EC50 [1, 20]: 6.61 µM | Beating rate [2]: 388 ± 41 bpm | Beating rate in % of 1 µM 5-HT [2]: 105% ± 5% | EC50 ([2]; read-out: pD2, beating rate (converted)): 5.37 µM | effect on beating rate in WT right atrium [3]: not from WT | effect in Langendorff hearts from WT mice [5]: inactive | pD2, beating rate [8]: 4.87

From PMC10244282 (Naunyn-Schmiedeberg's Archives of Pharmacology, 2023)
